# Measurements taken from ChEMBL document CHEMBL3885861, “Open TG-GATES”.
# Organism: Rattus norvegicus
# Experiment: Open TG-GATES - Regimen: Daily Repeat
# Format: toxicity, organism-based, Sprague-Dawley
# Set-up: regimen Daily Repeat, gender Male, age 6 weeks
# Settings: in vivo, po, route gavage; for APTT / Bas / Eos / Fbg / Hb / Ht / Lym / MCH / MCHC / MCV / Mono / Neu / PT / Plat / RBC / Ret / WBC: tissue Blood; for KIDNEY_TOTAL: tissue Kidney; for LIVER: tissue Liver; for A/G / ALP / ALT / AST / BUN / CRE / Ca / Cl / DBIL / GLC / IP / K / LDH / Na / PL / RALB / TBIL / TC / TG / TP / gamma-GTP: tissue Plasma
# [1] = 20 mg/kg, 72 h, dose level Middle, time 3 day
# [2] = 20 mg/kg, […], dose level Middle, time 7 day
# [3] = 20 mg/kg, […], dose level Middle, time 14 day
# [4] = 20 mg/kg, […], dose level Middle, time 28 day
# [5] = 100 mg/kg, 72 h, dose level High, time 3 day
# [6] = 100 mg/kg, […], dose level High, time 7 day
# [7] = 100 mg/kg, […], dose level High, time 14 day
# [8] = 100 mg/kg, […], dose level High, time 28 day
smiles,measurement,setting,value
CN(CCOc1ccc(CC2SC(=O)NC2=O)cc1)c1ccccn1.O=C(O)/C=C\C(=O)O (stereo not drawn) [ROSIGLITAZONE MALEATE],TERMINAL_BW,[1],255.1 g
same,APTT,[1],16.4 s
same,Bas,[1],0%
same,Eos,[1],0.8%
same,Fbg,[1],231.2 mg/dL
same,Hb,[1],12.7 g/dL
same,Ht,[1],38.6%
same,Lym,[1],75.2%
same,MCH,[1],21 pg
same,MCHC,[1],32.8%
same,MCV,[1],64 fL
same,Mono,[1],8%
same,Neu,[1],16.6%
same,PT,[1],11.7 s
same,Plat,[1],136.2 x10_4/uL
same,RBC,[1],603.2 x10_4/ul
same,Ret,[1],7%
same,WBC,[1],83.2 x10_2/uL
same,KIDNEY_TOTAL,[1],0.7 g
same,LIVER,[1],12.7 g
same,A/G,[1],2.3
same,ALP,[1],1378.6 IU/L
same,ALT,[1],38.8 IU/L
same,AST,[1],67.8 IU/L
same,BUN,[1],16.4 mg/dL
same,CRE,[1],0.2 mg/dL
same,Ca,[1],11.7 mg/dL
same,Cl,[1],103.6 meq/L
same,DBIL,[1],0.012 mg/dL
same,GLC,[1],187.4 mg/dL
same,IP,[1],7.6 mg/dL
same,K,[1],4.3 meq/L
same,LDH,[1],93.4 IU/L
same,Na,[1],140 meq/L
same,PL,[1],147.4 mg/dL
same,RALB,[1],3.9 g/dL
same,TBIL,[1],0.04 mg/dL
same,TC,[1],80.4 mg/dL
same,TG,[1],79.6 mg/dL
same,TP,[1],5.6 g/dL
same,gamma-GTP,[1],0 IU/L
same,TERMINAL_BW,[2],281.6 g
same,TERMINAL_BW,[3],355.9 g
same,TERMINAL_BW,[4],432 g
same,APTT,[2],15.7 s
same,Bas,[2],0%
same,Eos,[2],0.8%
same,Fbg,[2],225.6 mg/dL
same,Hb,[2],12.6 g/dL
same,Ht,[2],38.6%
same,Lym,[2],76%
same,MCH,[2],20.7 pg
same,MCHC,[2],32.5%
same,MCV,[2],63.5 fL
same,Mono,[2],6%
same,Neu,[2],17.4%
same,PT,[2],11.9 s
same,Plat,[2],123 x10_4/uL
same,RBC,[2],608.4 x10_4/ul
same,Ret,[2],6.5%
same,WBC,[2],87.6 x10_2/uL
same,APTT,[3],15.9 s
same,Bas,[3],0%
same,Eos,[3],0.8%
same,Fbg,[3],240.4 mg/dL
same,Hb,[3],13 g/dL
same,Ht,[3],39.7%
same,Lym,[3],79.8%
same,MCH,[3],20.7 pg
same,MCHC,[3],32.8%
same,MCV,[3],63 fL
same,Mono,[3],6%
same,Neu,[3],13.6%
same,PT,[3],11.6 s
same,Plat,[3],110.8 x10_4/uL
same,RBC,[3],631.8 x10_4/ul
same,Ret,[3],3.7%
same,WBC,[3],108.6 x10_2/uL
same,APTT,[4],15.9 s
same,Bas,[4],0%
same,Eos,[4],1%
same,Fbg,[4],252.2 mg/dL
same,Hb,[4],13.9 g/dL
same,Ht,[4],42.4%
same,Lym,[4],81.8%
same,MCH,[4],19.2 pg
same,MCHC,[4],32.8%
same,MCV,[4],58.6 fL
same,Mono,[4],6%
same,Neu,[4],11%
same,PT,[4],11.9 s
same,Plat,[4],110 x10_4/uL
same,RBC,[4],725 x10_4/ul
same,Ret,[4],2.6%
same,WBC,[4],105 x10_2/uL
same,KIDNEY_TOTAL,[2],0.8 g
same,KIDNEY_TOTAL,[3],0.8 g
same,KIDNEY_TOTAL,[4],0.8 g
same,LIVER,[2],13.5 g
same,LIVER,[3],16.1 g
same,LIVER,[4],16.8 g
same,A/G,[2],2.1
same,ALP,[2],1428.6 IU/L
same,ALT,[2],36.2 IU/L
same,AST,[2],67.6 IU/L
same,BUN,[2],18.8 mg/dL
same,CRE,[2],0.4 mg/dL
same,Ca,[2],11.3 mg/dL
same,Cl,[2],104.8 meq/L
same,DBIL,[2],0.01 mg/dL
same,GLC,[2],171.2 mg/dL
same,IP,[2],7.8 mg/dL
same,K,[2],4.3 meq/L
same,LDH,[2],92 IU/L
same,Na,[2],141.2 meq/L
same,PL,[2],134.8 mg/dL
same,RALB,[2],3.8 g/dL
same,TBIL,[2],0.032 mg/dL
same,TC,[2],71.8 mg/dL
same,TG,[2],55.2 mg/dL
same,TP,[2],5.7 g/dL
same,gamma-GTP,[2],0.4 IU/L
same,A/G,[3],2
same,ALP,[3],1500.8 IU/L
same,ALT,[3],35.2 IU/L
same,AST,[3],64.2 IU/L
same,BUN,[3],19 mg/dL
same,CRE,[3],0.4 mg/dL
same,Ca,[3],11.1 mg/dL
same,Cl,[3],106.4 meq/L
same,DBIL,[3],0.01 mg/dL
same,GLC,[3],188 mg/dL
same,IP,[3],7.3 mg/dL
same,K,[3],4.2 meq/L
same,LDH,[3],63 IU/L
same,Na,[3],143.8 meq/L
same,PL,[3],134.4 mg/dL
same,RALB,[3],3.8 g/dL
same,TBIL,[3],0.032 mg/dL
same,TC,[3],73.8 mg/dL
same,TG,[3],69.4 mg/dL
same,TP,[3],5.6 g/dL
same,gamma-GTP,[3],1 IU/L
same,A/G,[4],1.8
same,ALP,[4],1013.6 IU/L
same,ALT,[4],34 IU/L
same,AST,[4],61.2 IU/L
same,BUN,[4],17.8 mg/dL
same,CRE,[4],0.4 mg/dL
same,Ca,[4],10.6 mg/dL
same,Cl,[4],105.8 meq/L
same,DBIL,[4],0.01 mg/dL
same,GLC,[4],180.4 mg/dL
same,IP,[4],6.5 mg/dL
same,K,[4],4.2 meq/L
same,LDH,[4],87.2 IU/L
same,Na,[4],140.8 meq/L
same,PL,[4],122.8 mg/dL
same,RALB,[4],3.7 g/dL
same,TBIL,[4],0.032 mg/dL
same,TC,[4],64.6 mg/dL
same,TG,[4],65.2 mg/dL
same,TP,[4],5.8 g/dL
same,gamma-GTP,[4],0.4 IU/L
same,TERMINAL_BW,[5],241.9 g
same,APTT,[5],16.1 s
same,Bas,[5],0%
same,Eos,[5],1%
same,Fbg,[5],214 mg/dL
same,Hb,[5],12 g/dL
same,Ht,[5],36.4%
same,Lym,[5],73.4%
same,MCH,[5],21.1 pg
same,MCHC,[5],33%
same,MCV,[5],63.8 fL
same,Mono,[5],7.2%
same,Neu,[5],19.2%
same,PT,[5],11.7 s
same,Plat,[5],122 x10_4/uL
same,RBC,[5],570.8 x10_4/ul
same,Ret,[5],7.7%
same,WBC,[5],111.2 x10_2/uL
same,KIDNEY_TOTAL,[5],0.7 g
same,LIVER,[5],12.3 g
same,A/G,[5],2.5
same,ALP,[5],1258 IU/L
same,ALT,[5],44.4 IU/L
same,AST,[5],74.2 IU/L
same,BUN,[5],17.2 mg/dL
same,CRE,[5],0.2 mg/dL
same,Ca,[5],11.4 mg/dL
same,Cl,[5],106.2 meq/L
same,DBIL,[5],0.01 mg/dL
same,GLC,[5],179.8 mg/dL
same,IP,[5],8.1 mg/dL
same,K,[5],4.1 meq/L
same,LDH,[5],115.6 IU/L
same,Na,[5],141.8 meq/L
same,PL,[5],142.2 mg/dL
same,RALB,[5],3.8 g/dL
same,TBIL,[5],0.034 mg/dL
same,TC,[5],77.6 mg/dL
same,TG,[5],48 mg/dL
same,TP,[5],5.4 g/dL
same,gamma-GTP,[5],0 IU/L
same,TERMINAL_BW,[6],286.2 g
same,TERMINAL_BW,[7],351.2 g
same,TERMINAL_BW,[8],428.4 g
same,APTT,[6],16.1 s
same,Bas,[6],0%
same,Eos,[6],1.2%
same,Fbg,[6],195.8 mg/dL
same,Hb,[6],11.6 g/dL
same,Ht,[6],35.3%
same,Lym,[6],74.6%
same,MCH,[6],21.8 pg
same,MCHC,[6],32.8%
same,MCV,[6],66.4 fL
same,Mono,[6],9.2%
same,Neu,[6],15.4%
same,PT,[6],12.2 s
same,Plat,[6],111.4 x10_4/uL
same,RBC,[6],530.8 x10_4/ul
same,Ret,[6],7.7%
same,WBC,[6],99 x10_2/uL
same,APTT,[7],16.1 s
same,Bas,[7],0%
same,Eos,[7],1%
same,Fbg,[7],227 mg/dL
same,Hb,[7],12.8 g/dL
same,Ht,[7],38.9%
same,Lym,[7],70.8%
same,MCH,[7],20.8 pg
same,MCHC,[7],32.8%
same,MCV,[7],63.4 fL
same,Mono,[7],10.4%
same,Neu,[7],17.6%
same,PT,[7],12 s
same,Plat,[7],94.8 x10_4/uL
same,RBC,[7],614.6 x10_4/ul
same,Ret,[7],4.9%
same,WBC,[7],108.6 x10_2/uL
same,APTT,[8],16.1 s
same,Bas,[8],0%
same,Eos,[8],1.2%
same,Fbg,[8],220.8 mg/dL
same,Hb,[8],12.9 g/dL
same,Ht,[8],39.5%
same,Lym,[8],77.4%
same,MCH,[8],19.6 pg
same,MCHC,[8],32.6%
same,MCV,[8],60.2 fL
same,Mono,[8],7.8%
same,Neu,[8],13.4%
same,PT,[8],12.1 s
same,Plat,[8],87.6 x10_4/uL
same,RBC,[8],657.8 x10_4/ul
same,Ret,[8],3.2%
same,WBC,[8],104 x10_2/uL
same,KIDNEY_TOTAL,[6],0.8 g
same,KIDNEY_TOTAL,[7],0.9 g
same,KIDNEY_TOTAL,[8],0.9 g
same,LIVER,[6],14.7 g
same,LIVER,[7],16.3 g
same,LIVER,[8],18.6 g
same,A/G,[6],2.3
same,ALP,[6],1176 IU/L
same,ALT,[6],33 IU/L
same,AST,[6],67.6 IU/L
same,BUN,[6],20.8 mg/dL
same,CRE,[6],0.5 mg/dL
same,Ca,[6],11 mg/dL
same,Cl,[6],105.6 meq/L
same,DBIL,[6],0.014 mg/dL
same,GLC,[6],178.8 mg/dL
same,IP,[6],7.5 mg/dL
same,K,[6],4 meq/L
same,LDH,[6],77 IU/L
same,Na,[6],142 meq/L
same,PL,[6],135.4 mg/dL
same,RALB,[6],3.8 g/dL
same,TBIL,[6],0.034 mg/dL
same,TC,[6],73.8 mg/dL
same,TG,[6],43.4 mg/dL
same,TP,[6],5.4 g/dL
same,gamma-GTP,[6],0.4 IU/L
same,A/G,[7],2
same,ALP,[7],1156 IU/L
same,ALT,[7],36 IU/L
same,AST,[7],68.2 IU/L
same,BUN,[7],18.2 mg/dL
same,CRE,[7],0.4 mg/dL
same,Ca,[7],11 mg/dL
same,Cl,[7],107.6 meq/L
same,DBIL,[7],0.01 mg/dL
same,GLC,[7],190.4 mg/dL
same,IP,[7],7.4 mg/dL
same,K,[7],3.8 meq/L
same,LDH,[7],87.2 IU/L
same,Na,[7],145.8 meq/L
same,PL,[7],120 mg/dL
same,RALB,[7],3.7 g/dL
same,TBIL,[7],0.028 mg/dL
same,TC,[7],69.4 mg/dL
same,TG,[7],38.8 mg/dL
same,TP,[7],5.5 g/dL
same,gamma-GTP,[7],1 IU/L
same,A/G,[8],2.1
same,ALP,[8],951 IU/L
same,ALT,[8],29 IU/L
same,AST,[8],59.2 IU/L
same,BUN,[8],18.6 mg/dL
same,CRE,[8],0.4 mg/dL
same,Ca,[8],11 mg/dL
same,Cl,[8],105 meq/L
same,DBIL,[8],0.01 mg/dL
same,GLC,[8],179.6 mg/dL
same,IP,[8],6.2 mg/dL
same,K,[8],3.9 meq/L
same,LDH,[8],88.4 IU/L
same,Na,[8],141.2 meq/L
same,PL,[8],123.2 mg/dL
same,RALB,[8],3.9 g/dL
same,TBIL,[8],0.04 mg/dL
same,TC,[8],74.8 mg/dL
same,TG,[8],37.8 mg/dL
same,TP,[8],5.8 g/dL
same,gamma-GTP,[8],0 IU/L
